Experimental data taken from patent US8258305B2, “Dopamine transporter inhibitors for use in treatment of movement disorders and other CNS indications” (Prexa Pharmaceuticals, Inc., priority 2005, dated 2012).
“Also recorded” adds a separate entry of the source.

Experiments:
NET [1] = target: NET (Rattus norvegicus, UniProt Q63380); experiment: Functional uptake profile, rat NET; format: cell-based
rat = experiment: Acute single-dose toxicology (maximum tolerated dose); format: in vivo; conditions: for observed toxicological effects: rat (n = 5), i.v., observed for 72 hours
Description: An in vivo evaluation was carried out to determine the maximum tolerated dose of numerous test compounds in rat. The compounds were administered i.v., and the animals were then observed for 72 hours.
Briefly, experimental rats, in groups of 5 animals, were administered with various doses of respective DAT inhibitors (e.g. 30, 90, 120, and 200 mg/kg), and the observed toxicological effects were recorded.

[2] = tested on: rat (immobility in forced swim test); experiment: Forced swim test (behavioral despair assay); format: in vivo
Text: The objective of this study was to assess the antidepressant effects of test compounds in the behaviral despair assay in rats using a modification of a method described by Porsolt R. D. et al. in Behavioral despair in rats: a new model sensitive to antidepressant treatment, Eur. J. Pharmacol., 47: 379-391, 1978; Porsolt et al., Nature 266: 730-732, 1977; and Porsolt et al., in Psychopharmacology, Olivier, Mos, and Slangen (eds) Birkhauser Verlag, Basel, pp. 137-159, 1991. Briefly, when mice (or rats) are forced to swim in a cylinder from which no escape is possible, they readily adopt a characteristic immobile posture and make no further attempts to escape except for small movements needed to keep floating. The immobility is considered by some to reflect a “depressive mood” (Porsolt et al., Nature 266: 730-732, 1977) in which animals cease to struggle to escape the aversive situation. The immobility induced by the procedure is influenced by a wide variety of antidepressants (Porsolt et al., in Psychopharmacology, Olivier, Mos, and Slangen (eds). Birkhauser. Verlag, Basel, pp. 137-159, 1991) and has a good predictive validity in that it detects antidepressants with different mechanisms of action (TCAs, SSRIs, MAOIs, and other atypical ones). The test is sensitive to muscle-relaxant (benzodiazepines) and sedative (neuroleptics) effects, leading to enhanced immobility (Porsolt et al., supra).
In a typical experiment, animals are placed singly into a cylinder (e.g. 46×30 cm) containing fresh water at about 20° C. for 6 minutes. The activity (or immobility) of the animal is measured by an observer minute by minute. In more detail, the animals were preconditioned in a pretest session, where the rats were individually forced to swim inside a vertical plexiglass cylinder containing water maintained at 19-20° C. After 15 minutes in the water, they were allowed to dry for 15 minutes in a heated enclosure. Twenty four hours later, the compounds were administered either intraperitoneally or orally to the animals. One hour after administration of the test compound, animals were put back into the cylinder containing water. The total duration of immobility was measured during the last 4 minutes of a 6 minute test.
The results are expressed as the percentage of variation of the total duration of immobility calculated from the mean value of the vehicle-treated group (% variation=[(immobility duration of vehicle−immobility duration of test compound)/(immobility duration of vehicle)]×100%). Only compounds which exibit a statistically significant variation (e.g. >30%) are considered effective in this in vivo model.
Sibutramine (2.0 and 2.5 mg/kg), Bupropion (7.5 and 10 mg/kg), and Imipramine (30 mg/kg) were similarly administered as controls. […] Asterisks indicate highly statistical significant results.
A fourth DAT inhibitor, CNS-28,002 was administered p.o. as a racemic mixture of diastereomers at either 35 or 75 mg/kg. Sibutramine (5.0 and 3.75 mg/kg), Bupropion (30 and 40 mg/kg), and Imipramine (100 mg/kg) were similarly administered as controls.
Sibutramine (5.0 and 3.75 mg/kg), Bupropion (30 and 40 mg/kg), and Imipramine (100 mg/kg) were similarly administered as controls.

NET [3] = target: T1, NET (Homo sapiens, UniProt P23975); experiment: Functional norephinephrine uptake inhibition, MDCK cell line; format: cell-based
T1 construct: expressed in transfected cells; host or cells: MDCK
Description: (§1) Functional activity of the compounds was determined in vitro in cellular assays using recombinant human cell lines.

DAT = target: T2, DAT (Homo sapiens, UniProt Q01959); format: cell-based; conditions: functional uptake
T2 construct: expressed in transfected cells
Description: as §1

5-HT (serotonine uptake) = target: T3, 5-HT (serotonine uptake) (Homo sapiens, UniProt P31645); format: cell-based; conditions: functional uptake
T3 construct: expressed in transfected cells; host or cells: HEK-293
Description: as §1

Sprague-Dawley rats = experiment: 7-day multidose oral dosing toxicology study; conditions: 7 days; for observed symptoms: Sprague-Dawley rats (n = 6; 3M/3F), oral
Description: The oral doses tested are 50 mg/kg/day, 100 mg/kg/day, 200 mg/kg/day, and 400 mg/kg/day.

[4] = single dose 200 mg/kg, 200 mg/kg
[5] = i.p., e.g. 7.5 and 15 mg/kg, racemic mixtures of diastereomers, FIG. 2
[6] = p.o., 35 or 75 mg/kg, FIG. 3 and FIG. 4

T3 sequence (P31645 whole entry): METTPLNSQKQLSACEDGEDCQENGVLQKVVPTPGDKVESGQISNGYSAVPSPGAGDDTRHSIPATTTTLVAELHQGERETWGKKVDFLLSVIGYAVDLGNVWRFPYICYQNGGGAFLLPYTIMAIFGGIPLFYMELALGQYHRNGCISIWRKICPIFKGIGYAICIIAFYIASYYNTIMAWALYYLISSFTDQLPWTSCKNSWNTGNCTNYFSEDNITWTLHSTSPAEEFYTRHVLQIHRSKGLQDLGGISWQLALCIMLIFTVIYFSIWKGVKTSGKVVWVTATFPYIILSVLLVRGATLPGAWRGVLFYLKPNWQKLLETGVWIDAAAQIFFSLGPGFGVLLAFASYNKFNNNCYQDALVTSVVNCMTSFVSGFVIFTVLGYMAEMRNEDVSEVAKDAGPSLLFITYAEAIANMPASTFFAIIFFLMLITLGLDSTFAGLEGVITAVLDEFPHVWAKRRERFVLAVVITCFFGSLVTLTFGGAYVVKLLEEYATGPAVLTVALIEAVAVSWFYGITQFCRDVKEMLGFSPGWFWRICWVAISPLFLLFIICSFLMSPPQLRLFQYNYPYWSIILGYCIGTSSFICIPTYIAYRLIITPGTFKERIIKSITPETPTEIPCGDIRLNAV
T1 sequence (P23975 whole entry): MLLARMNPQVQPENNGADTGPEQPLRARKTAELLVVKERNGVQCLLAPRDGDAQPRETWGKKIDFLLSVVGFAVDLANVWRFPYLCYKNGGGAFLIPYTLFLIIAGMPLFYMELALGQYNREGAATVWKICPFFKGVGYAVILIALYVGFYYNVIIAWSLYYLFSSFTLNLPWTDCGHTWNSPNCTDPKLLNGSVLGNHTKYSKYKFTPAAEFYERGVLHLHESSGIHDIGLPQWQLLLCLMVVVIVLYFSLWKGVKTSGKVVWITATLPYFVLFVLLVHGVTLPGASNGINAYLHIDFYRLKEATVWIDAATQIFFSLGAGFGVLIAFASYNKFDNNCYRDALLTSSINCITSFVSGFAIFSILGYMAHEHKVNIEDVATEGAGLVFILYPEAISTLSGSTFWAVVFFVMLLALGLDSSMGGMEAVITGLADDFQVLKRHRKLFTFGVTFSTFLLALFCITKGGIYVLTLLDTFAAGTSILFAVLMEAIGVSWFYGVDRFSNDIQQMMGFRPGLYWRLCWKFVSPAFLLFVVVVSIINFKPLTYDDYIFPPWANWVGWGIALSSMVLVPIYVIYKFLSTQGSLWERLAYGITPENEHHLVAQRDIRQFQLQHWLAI
T2 sequence (Q01959 whole entry): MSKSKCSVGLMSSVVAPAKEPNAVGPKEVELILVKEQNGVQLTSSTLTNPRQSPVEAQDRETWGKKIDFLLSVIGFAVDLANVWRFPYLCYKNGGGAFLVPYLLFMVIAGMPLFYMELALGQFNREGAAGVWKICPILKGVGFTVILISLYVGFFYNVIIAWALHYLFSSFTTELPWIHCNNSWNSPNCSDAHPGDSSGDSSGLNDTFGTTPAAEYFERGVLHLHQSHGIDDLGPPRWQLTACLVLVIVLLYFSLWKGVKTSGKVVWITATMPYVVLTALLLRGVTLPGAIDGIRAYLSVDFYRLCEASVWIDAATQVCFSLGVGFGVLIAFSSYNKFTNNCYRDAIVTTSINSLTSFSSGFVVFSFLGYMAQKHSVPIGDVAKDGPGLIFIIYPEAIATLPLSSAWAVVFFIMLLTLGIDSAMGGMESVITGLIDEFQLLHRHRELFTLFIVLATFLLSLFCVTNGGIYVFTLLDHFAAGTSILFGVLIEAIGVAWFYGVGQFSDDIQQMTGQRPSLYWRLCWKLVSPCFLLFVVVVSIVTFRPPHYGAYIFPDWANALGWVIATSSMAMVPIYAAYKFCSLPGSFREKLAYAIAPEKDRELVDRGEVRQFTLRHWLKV
Chain of NET (Rattus norvegicus, UniProt Q63380) (Q63380 1-617): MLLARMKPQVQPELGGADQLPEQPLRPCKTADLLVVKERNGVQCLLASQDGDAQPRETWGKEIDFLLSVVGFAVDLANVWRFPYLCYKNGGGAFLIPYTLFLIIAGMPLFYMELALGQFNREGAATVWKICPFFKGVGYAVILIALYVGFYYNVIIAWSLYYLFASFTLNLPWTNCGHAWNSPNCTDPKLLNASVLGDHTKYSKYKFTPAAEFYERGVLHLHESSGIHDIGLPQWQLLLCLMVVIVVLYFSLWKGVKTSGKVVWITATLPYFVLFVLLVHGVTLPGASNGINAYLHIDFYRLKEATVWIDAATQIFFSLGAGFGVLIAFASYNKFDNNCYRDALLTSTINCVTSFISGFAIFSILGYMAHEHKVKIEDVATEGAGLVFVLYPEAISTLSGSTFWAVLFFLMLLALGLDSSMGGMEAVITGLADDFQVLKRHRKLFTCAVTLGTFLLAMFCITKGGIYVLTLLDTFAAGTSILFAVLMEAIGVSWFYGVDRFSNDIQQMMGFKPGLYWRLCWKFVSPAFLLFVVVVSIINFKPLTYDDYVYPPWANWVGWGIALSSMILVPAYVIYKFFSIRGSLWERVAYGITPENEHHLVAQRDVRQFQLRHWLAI

**Q.** Which results are given for `CC1CCN(CC2(c3ccc(Cl)cc3)CCC2)CC1COc1ccc(C(F)(F)F)cc1` (centres unmarked) [CNS-27,100]?
**A.** EC50 (NET [1]): 1000 nM; observed toxicological effects (rat; [4]): decreased grip strength, and slight depression; doses tolerated well with no significant observed symptoms (rat; rat, single dose): below 120 mg/kg; in vivo efficacy in forced swim test compared with commercial drugs [2, 5]: performed equally well, if not better, than the commercial drugs Sibutramine, Bupropion, and Imipramine; in vivo efficacy in forced swim test compared with commercial drugs [2, 6]: performed equally well, if not better, than the commercial drugs Sibutramine, Bupropion, and Imipramine

**Q.** With `CC1CCC(COc2ccc(C(F)(F)F)cc2)CN1CC1(c2ccc(Cl)cc2)CCC1` (centres unmarked) [CNS-28,100] as the molecule, how does the EC50 (NET [1]) read?
**A.** Its EC50 is 300 nM.

**Q.** And the “in vivo efficacy in forced swim test compared with commercial drugs” value [2, 5]?
**A.** The value was “performed equally well, if not better, than the commercial drugs Sibutramine, Bupropion, and Imipramine”.

**Q.** Which results are given for `CC(C)C[C@@H](N)C1(c2ccc(Cl)cc2)CCC1` [R-DDMS]?
**A.** EC50 (NET [3]): 200 nM; EC50 (DAT): 100 nM; EC50 (5-HT (serotonine uptake)): 1500 nM

**Q.** How did the observed symptoms (Sprague-Dawley rats; 100 mg/kg/day) turn out when `CC(C)CC(N(C)C)C1(c2ccc(Cl)cc2)CCC1` (centres unmarked) [Sibutramine] was run?
**A.** The observed symptoms was “decreased grip strength, depression”.

**Q.** And the observed symptoms (Sprague-Dawley rats; 400 mg/kg/day)?
**A.** The observed symptoms was “convulsions; also recorded: Convulsions;”.

**Q.** And the “deaths (number of animals)” value (Sprague-Dawley rats; n = 6, oral, 200 mg/kg/day)?
**A.** The value was 2 deaths.

**Q.** And the “self mutilation (number of animals)” value (Sprague-Dawley rats; n = 6, oral, 200 mg/kg/day)?
**A.** The value was 6 self mutilation.

**Q.** How did the observed toxicological effects (rat; [4]) turn out when `CC1C(COc2ccc(C(F)(F)F)cc2)CCCN1CC(O)C1(c2ccc(Cl)cc2)CCC1` (centres unmarked) [CNS-28,002] was run?
**A.** Its observed toxicological effects is “no observed symptoms”.

**Q.** And the “in vivo efficacy in forced swim test compared with commercial drugs” value [2, 6]?
**A.** Its value is “performed equally well, if not better, than the commercial drugs Sibutramine, Bupropion, and Imipramine”.

**Q.** How did the observed toxicological effects (rat; single dose 120 mg/kg, 120 mg/kg) turn out when `CC1CCC(COc2ccc(C(F)(F)F)cc2)CN1CC(O)C1(c2ccc(Cl)cc2)CCC1` (centres unmarked) [CNS-28,200] was run?
**A.** Its observed toxicological effects is “decreased grip strength and limb tone and convulsions”.

**Q.** What about the observed toxicological effects (rat; [4]) of the same molecule?
**A.** The observed toxicological effects was “Convulsions”.

**Q.** And the “toxic dose relative to the effective dose shown in FIG. 2” value (rat; rat, dose with convulsions vs forced swim test effective dose)?
**A.** Its value is “about 10 times”.

**Q.** What about the “in vivo efficacy in forced swim test compared with commercial drugs” value [2, 5] of the same molecule?
**A.** The value was “performed equally well, if not better, than the commercial drugs Sibutramine, Bupropion, and Imipramine”.

**Q.** With `CN[C@H](CC(C)C)C1(c2ccc(Cl)cc2)CCC1` [R-DMS] as the molecule, how does the EC50 (NET [3]) read?
**A.** Its EC50 is 300 nM.

**Q.** And the EC50 (DAT)?
**A.** The EC50 was 30 nM.

**Q.** What about the EC50 (5-HT (serotonine uptake)) of the same molecule?
**A.** Its EC50 is 1500 nM.
